Test results from patent publication US4448777A, “1-Phenylindazole-3-one compounds, process and intermediates for their preparation, and pharmaceutical compositions containing same” (Kali-Chemie Pharma GmbH, priority 1981, dated 1984).

What follows are compounds tested on passive cutaneous anaphylaxis (PCA) (assay: Inhibition of passive cutaneous anaphylaxis (PCA test) in rats). Conditions: Rattus norvegicus, po, 10 minutes before intraperitoneal ovoalbumin and Evans blue, blue spot diameter after 30 minutes, read-out: P.C.A. Inhibition ED50.
Assay type: in vivo
Description: For example, the substances have an inhibiting action on the release of endogenic mediators, from mast cells or basophilic leucocytes, which leads to allergic reactions. The doses to be used vary, of course, depending upon the nature of the substance used, upon the mode of administration and upon the condition to be treated. In general, however, satisfactory results are obtained in animal experiments with peroral doses of between 0.05 and 75 mg. per kg. of body weight. Thus, the new compounds have a specific inhibiting action in the PCA test (passive cutaneous anaphylaxis)in rats which is described below.
Description of the test method to determine the inhibition of passive cutaneous anaphylasis (PCA test, see Arch.int.pharmacology 252 (1981) 316-326)
To prepare the IgE-antiovoalbumin serum, used in this test, by the method of Mota (Immunology 7, (1964) 681) and J. Goose (Immunology 16 (1969) 749), male Wistar rats of 200-250 g. body weight were sensitised by subcutaneous injection of 1 mg. of ovoalbumin and 1 ml. of Bordetella pertussis suspension ("Vaxicoq" Merieux 3×10^10 organisms/ml). After 14 days, the animals are exsanguinated and the blood is centrifuged. The antiserum thus obtained is stored at […].
Non-sensitised rats were injected with in each case 0.1 ml. of antiserum into the skin at in each case four different sites on their shaven backs. After 72 hours, a solution of the test compound, or, for comparison, only the solvent, is administered orally, and 10 minutes later 5 mg. of ovoalbumin and 5 mg. of blue dye (Evans blue) in 0.9% strength sodium chloride solution are administered intraperitoneally. After 30 minutes, the animals are sacrificed and the diameters of the blue spots formed at the sites injected with the antiserum are measured. The inhibiting effect of the test substance is determined from the size of the blue spots which occur. […]

Row | SMILES | ED50
1 | O=c1c2ccccc2n(-c2ccccc2)n1CCCCN1CCN(c2ccccc2)CC1 [Example 12] | 22 mg/kg
2 | O=c1c2ccccc2n(-c2ccccc2)n1CCCCN1CCN(c2ccc(F)cc2)CC1 [Example 17] | 17.9 mg/kg
3 | COc1ccccc1N1CCN(CCCCn2c(=O)c3ccc(Cl)cc3n2-c2ccccc2)CC1 [Example 26] | 22 mg/kg
4 | Cc1ccnc(N2CCN(CCCn3c(=O)c4ccccc4n3-c3ccccc3)CC2)c1 [Example 21] | 19.2 mg/kg
5 | COc1ccc2c(c1)c(=O)n(CCCCN1CCN(c3ccccc3OC)CC1)n2-c1ccccc1 [Example 29] | 14 mg/kg
6 | COc1ccc2c(c1)c(=O)n(CCCCN1CCN(c3cc(C)ccn3)CC1)n2-c1ccccc1 [Example 28] | 5.7 mg/kg
7 | Cc1ccnc(N2CCN(CCCCn3c(=O)c4ccccc4n3-c3cccc(C(F)(F)F)c3)CC2)c1 [Example 32] | 6.6 mg/kg
8 | O=c1c2ccccc2n(-c2ccccc2)n1CCCN1CCN(c2ccc(F)cc2)CC1 [Example 15] | 10.6 mg/kg
9 | O=c1c2ccccc2n(-c2ccccc2)n1CCCN1CCN(c2ccccn2)CC1 [Example 19] | 11.5 mg/kg
10 | O=c1c2ccccc2n(-c2ccccc2)n1CCCCN1CCN(c2ccccn2)CC1 [Example 18] | 25 mg/kg

Same assay, conditions: oral, 10 minutes before intraperitoneal ovoalbumin and Evans blue, blue spot diameter after 30 minutes

Row | SMILES | P.C.A. Inhibition ED50
11 | Cc1ccnc(N2CCN(CCCCn3c(=O)c4ccccc4n3-c3ccccc3)CC2)c1 [Example 49] | 15.5 mg/kg
12 | Cc1ccnc(N2CCN(CCCCn3c(=O)c4ccccc4n3-c3ccccc3)CC2)c1 [Example 20] | 7.5 mg/kg
